Columns and labels:
Type in all cases: in vivo
[1] = system: Phakopsora pachyrhizi containing the amino acid substitution F129L in the mitochondrial cytochrome b protein; test: Use Example 2: protective control of soybean rust on soybeans (PHAKPA P6); conditions: inoculated six days after spraying, % diseased leaf area
Description: (§1) The compound was dissolved in a mixture of acetone and/or dimethylsulfoxide and the wetting agent/emulsifier Wettol, which is based on ethoxylated alkylphenoles, in a ratio (volume) solvent-emulsifier of 99 to 1 to give a total volume of 5 ml. Subsequently, water was added to total volume of 100 ml. This stock solution was then diluted with the described solvent-emulsifier-water mixture to the final concentration given in the tables below.
Use Example 2. Protective Control of Soybean Rust on Soybeans Caused by Phakopsora Pachyrhizi (PHAKPA P6)
(§2) Leaves of potted soybean seedlings were sprayed to run-off with the previously described spray solution, containing the concentration of active ingredient as described below. The plants were allowed to air-dry. The trial plants were cultivated for six days in a greenhouse chamber at 23-27° C. and a relative humidity between 60 and 80%. Then the plants were inoculated with spores of Phakopsora pachyrhizi. The strain used contains the amino acid substitution F129L in the mitochondrial cytochrome b protein conferring resistance to Qo inhibitors. To ensure the success the artificial inoculation, the plants were transferred to a humid chamber with a relative humidity of about 95% and 23 to 27° C. for 24 hr. The trial plants were cultivated for up to 14 days in a greenhouse chamber at 23 to 27° C. and a relative humidity between 60 and 80%. The extent of fungal attack on the leaves was visually assessed as % diseased leaf area, the disease level of untreated controls was usually higher than 85%.

[2] = system: Phakopsora pachyrhizi containing the amino acid substitution F129L in the mitochondrial cytochrome b protein; test: Use Example 1: protective control of soybean rust on soybeans (PHAKPA P2); conditions: inoculated 2 days after spraying, % diseased leaf area
Description: as §1
Use Example 1. Protective Control of Soybean Rust on Soybeans Caused by Phakopsora pachyrhizi (PHAKPA P2)
as §2, with “active ingredient or their mixture as described” for “active ingredient as described”, “cultivated for 2 days in” for “cultivated for six days in”, “95% and 20 to 24°” for “95% and 23 to 27°”, “20 to 24° C. for” for “23 to 27° C. for”

Puccinia recondita [3] = test: Use Example 4: preventative control of brown rust on wheat (PUCCRT P7); conditions: inoculated seven days after spraying, % diseased leaf area
Description: as §1
Use Example 4. Preventative Control of Brown Rust on Wheat Caused by Puccinia recondita (PUCCRT P7)
The first two developed leaves of potted wheat seedling were sprayed to run-off with previously described spray solution, containing the concentration of active ingredient or their mixture as described below. Seven days later the plants were dusted with spores of Puccinia recondita. To ensure the success of the artificial inoculation, the plants were transferred to a humid chamber without light and a relative humidity of 95 to 99% and 20 to 24° C. for 24 h. Then the trial plants were cultivated for 9 to 11 days in a greenhouse chamber at 20 to 24° C. and a relative humidity between 65 and 70%. The extent of fungal attack on the leaves was visually assessed as % diseased leaf area, the disease level of untreated controls was usually between 80 and 100%.

Puccinia recondita [4] = test: Use Example 3: curative control of brown rust on wheat (PUCCRT K4); conditions: % diseased leaf area
Description: as §1
Use Example 3. Curative Control of Brown Rust on Wheat Caused by Puccinia recondita (PUCCRT K4)
The first two developed leaves of potted wheat seedling were dusted with spores of Puccinia recondita. To ensure the success the artificial inoculation, the plants were transferred to a humid chamber without light and a relative humidity of 95 to 99% and 20 to 24° C. for 24 h. The next 3 days the plants were cultivated in a greenhouse chamber at 20 to 24° C. and a relative humidity between 65 and 70%. Then the plants were sprayed to run-off with previously described spray solution, containing the concentration of active ingredient or their mixture as described below. The plants were allowed to air-dry. Then the trial plants were cultivated for 5 to 7 days in a greenhouse chamber at 20 to 24° C. and a relative humidity between 65 and 70%. The extent of fungal attack on the leaves was visually assessed as % diseased leaf area, the disease level of untreated controls was usually between 80 and 100%.

| SMILES | % PHAKPA (F129L) Disease level P6 at 4 ppm [1] [%] | % PHAKPA (F129L) Disease level P6 at 16 ppm [1] [%] | % PHAKPA (F129L) Disease level P2 at 4 ppm [2] [%] | % PHAKPA (F129L) Disease level P2 at 16 ppm [2] [%] | % PUCCRT Disease level P7 at 16 ppm (Puccinia recondita [3]) [%] | % PUCCRT Disease level K4 at 4 ppm (Puccinia recondita [4]) [%] | % PUCCRT Disease level K4 at 16 ppm (Puccinia recondita [4]) [%] | % PUCCRT Disease level P7 at 4 ppm (Puccinia recondita [3]) [%] |
| --- | --- | --- | --- | --- | --- | --- | --- | --- |
| CO/C=C(/C(=O)OC)c1cccc(Cl)c1CO/N=C(\COC)c1ccccn1 [compound 129, Methyl (E)-2-[3-chloro-2-[[(Z)-[2-methoxy-1-(2-pyridyl)ethylidene]amino]oxymethyl]phenyl]-3-methoxy-prop-2-enoate] | 4 | 1 | 1 | 0 | 18 | 11 | 1 |  |
| CCOC/C(=N\OCc1c(Cl)cccc1/C(=N\OC)C(=O)NC)c1ccc(Cl)cc1 [compound 46] | 68 | 16 | 80 | 20 | 10 | 67 | 38 | 60 |
| CO/C=C(/C(=O)OC)c1cccc(Cl)c1CO/N=C(\COC)c1cccc(C#N)c1 [compound 116] | 48 | 11 | 31 | 3 | 3 | 5 | 0 | 15 |
| CO/C=C(/C(=O)OC)c1cccc(Cl)c1CO/N=C(\COC)c1cccc(OC)c1 [compound 121] | 6 | 0 | 4 | 0 | 4 | 5 | 1 | 32 |
| CNC(=O)/C(=N/OC)c1cccc(Cl)c1CO/N=C(/C#Cc1ccc(F)cc1)COC [compound 6, (2E)-2-[3-chloro-2-[[(Z)-[3-(4-fluorophenyl)-1-(methoxymethyl)prop-2-ynylidene]amino]oxymethyl]phenyl]-2-methoxyimino-N-methyl-acetamide] | 28 | 5 | 8 | 0 | 0 | 38 | 2 | 8 |
| CO/C=C(/C(=O)OC)c1cccc(Cl)c1CO/N=C(\COC)c1cccc(Cl)c1 [compound 39] | 10 | 1 | 2 | 0 | 0 | 9 | 1 | 3 |
| CNC(=O)/C(=N/OC)c1cccc(Cl)c1CO/N=C(\COC)c1cc(F)c(F)c(F)c1 [compound 74] | 1 | 0 | 12 | 2 | 3 | 37 | 3 | 12 |
| CO/C=C(/C(=O)OC)c1cccc(Cl)c1CO/N=C(\COC)c1cccc(Cl)c1F [compound 76] | 0 | 0 | 10 | 1 | 3 | 41 | 2 | 35 |
| CO/C=C(/C(=O)OC)c1cccc(Cl)c1CO/N=C(\COC)c1ccc(F)cc1Cl [compound 93] | 43 | 15 | 13 | 1 | 16 | 83 | 19 | 53 |
| CO/C=C(/C(=O)OC)c1cccc(Cl)c1CO/N=C(\COC)c1cccc(F)c1F [compound 87] | 2 | 0 | 5 | 0 | 5 | 67 | 10 | 28 |
| CNC(=O)/C(=N/OC)c1cccc(Cl)c1CO/N=C(\COC)c1cccc(C#N)c1 [compound 117] | 34 | 8 | 59 | 5 | 1 | 18 | 0 | 14 |
| CCOC/C(=N\OCc1c(Cl)cccc1/C(=C\OC)C(=O)OC)c1cccc(F)c1 [compound 27] | 17 | 1 | 5 | 0 | 7 | 57 | 12 | 40 |
| CO/C=C(/C(=O)OC)c1cccc(Cl)c1CO/N=C(\COC)c1ccc(Cl)cc1 [compound 35] | 30 | 4 | 16 | 1 | 0 | 73 | 7 | 14 |
| CO/C=C(/C(=O)OC)c1cccc(Cl)c1CO/N=C(\COC)c1ccc(F)c(F)c1 [compound 92] | 12 | 0 | 0 | 0 | 3 | 6 | 0 | 3 |
| CCOC/C(=N\OCc1c(Cl)cccc1/C(=N\OC)C(=O)OC)c1ccc(Cl)cc1 [compound 44] | 80 | 68 | 95 | 55 | 37 | 75 | 73 | 77 |

— patent publication US20260165323A1, “USE OF STROBILURIN TYPE COMPOUNDS FOR COMBATING PHYTOPATHOGENIC FUNGI CONTAINING AN AMINO ACID SUBSTITUTION F129L IN THE MITOCHONDRIAL CYTOCHROME B PROTEIN CONFERRING RESISTANCE TO QO […]” (priority 2022, published 2026)
